Data taken from paper PMC7036132, “Effects of the Salt-Processing Method on the Pharmacokinetics and Tissue Distribution of Orally Administered Morinda officinalis How. Extract” (Journal of Analytical Methods in Chemistry, 2020).
Values joined by “and” are separate entries in the source; they are usually repeats but may differ in a detail not shown here. Equal entries are not always repeated.

Assays:
[1] = Pharmacokinetics in rat plasma after oral administration of MO and SMO extract (UPLC-MS/MS); type: in vivo, Sprague-Dawley (SD) rats; conditions: for Cmax: rat, plasma, po, 40 g/kg; for Cmax / AUC (0-t) / AUC (0-∞) / CL/F / MRT (0-t) / T max / V/F / t1/2z: n = 6
Procedure: (§1) For LC-MS/MS analysis, data acquisition and instrument control were performed using MassLynx 4.1 software (Waters Corp., Milford, MA, USA). The analysis column was an Acquity UPLC HSS T3 column (100 mm × 2.1 mm, 1.8 μm, Waters) with a temperature of 40°C. The mobile phase was acetonitrile containing 0.1% formic acid (A) and 0.1% formic acid aqueous solution (B). The elution gradient was 0.00–0.50 min with 2% B; 0.51–5.00 min with 2%–30% B; and 5.01–7.00 min with 40% B. The flow rate was 0.2 mL/min.
(§2) The Waters triple quadruple mass spectrometer (Xevo TQD, Waters Corp., Milford, MA, USA) equipped with an electrospray ionization source (ESI) was used in negative ion mode. The desolvation gas was nitrogen with a flow rate of 500 L/h at a temperature of 250°C. All detected compounds were measured in multiple reaction monitoring (MRM) mode.
10 μL of IS working solution and 400 μL of methanol were added to 100 μL plasma. The solution was vortexed for 10 min and then centrifuged at 12,000 rpm for 5 min. The supernatant was shifted to another centrifugation tube and dried with nitrogen at 37°C. The residue was redissolved in 100 μL acetonitrile and centrifuged for 5 min at 12,000 rpm. Five microliters of supernatant was drawn and analyzed by UPLC-MS/MS.
The SD rats (6, male) were housed at 22 ± 2°C and fasted for 12 h with drinking water available ad libitum. MO and SMO ethanol extract were orally administered at a dose of 40 g/kg (equivalent to 6.44 and 3.95 mg/kg of monotropein, 0.088 and 0.091 mg/kg of rubiadin, and 0.174 and 0.178 mg/kg of rubiadin 1-methyl ether). Blood samples (0.5 mL) were collected from the venous plexus of the eye socket at 0.083, 0.25, 0.5, 1.0, 1.5, 2.0, 2.5, 4.0, 6.0, 12.0, and 24 h under anesthesia. Then, the blood samples were centrifuged at 4500 rpm for 10 min, and then the plasma was immediately transferred to new tubes and stored at −80°C until analysis. The pharmacokinetic parameters were calculated using DAS software (3.0 version, China Food and Drug Administration) based on noncompartmental method. All data were recorded as mean ± SD.

[2] = Tissue distribution after oral administration of MO and SMO extract; type: in vivo, SD rats; conditions: rat; 0.25, 1, 3 and 6 h after oral MO or SMO extract 40 g/kg
Procedure: as §1, §2
The whole tissue was cut into pieces and homogenized with ice-cold 0.9% (m/v) sodium chloride solution (1 : 9, w/v). Using 50 μL of tissue homogenate, the tissue samples were prepared in the same way as the plasma samples.
MO and SMO ethanol extract (40 g/kg) was orally administered to SD rats (weight, 180–220 g, n = 6), at 0.25, 1, 3, and 6 h, respectively. […]

[3] = Stability of the three components in rat plasma and tissues (QC samples); conditions: n = 5
Procedure: The preparation of calibration standards was done as follows: The appropriate working solution was spiked into blank plasma or tissues to obtain concentrations of 75∼0.047 μg/mL for monotropein, 396∼1.54 μg/mL for rubiadin, and 596∼1.16 μg/mL for rubiadin 1-methyl ether. The QC concentrations for monotropein were 0.14 μg/mL, 2 μg/mL, and 28.1 μg/mL; for rubiadin, they were 1.6 μg/mL, 50.6 μg/mL, and 712.5 μg/mL; and for rubiadin 1-methyl ether, they were 3.9 μg/mL, 54.6 μg/mL, and 765 μg/mL. The QC samples used for the recovery, matrix effect, intra- and interday accuracy, precision, and stability studies were prepared in the same way as that of the calibration standards. The solutions were stored for one week at −20°C.
The QC samples used for the recovery QC samples were used to judge the stability, and the storage conditions were as follows: (1) freeze-thaw stability, (2) at room temperature for 4 h, and (3) put into the autosampler for 8 h, and (4) at −20°C for 30 days. The permitted range was within 15%.

[4] = male, Sprague-Dawley, oral MO extract 40 g/kg
[5] = male, Sprague-Dawley, oral SMO extract 40 g/kg
[6] = rat kidney, high Conc (rubiadin 4.63, rubiadin 1-methyl ether 3.49, monotropein 28.13 μg/mL)
[7] = rat kidney, low Conc (rubiadin 0.21, rubiadin 1-methyl ether 0.15, monotropein 1.41 μg/mL)
[8] = rat kidney, middle Conc (rubiadin 0.98, rubiadin 1-methyl ether 0.72, monotropein 6.2 μg/mL)
[9] = rat liver, high Conc (rubiadin 4.63, rubiadin 1-methyl ether 3.49, monotropein 28.13 μg/mL)
[10] = rat liver, low Conc (rubiadin 0.21, rubiadin 1-methyl ether 0.15, monotropein 1.41 μg/mL)
[11] = rat liver, middle Conc (rubiadin 0.98, rubiadin 1-methyl ether 0.72, monotropein 6.2 μg/mL)
[12] = rat lung, high Conc (rubiadin 4.63, rubiadin 1-methyl ether 3.49 μg/mL)
[13] = rat lung, low Conc (rubiadin 0.21, rubiadin 1-methyl ether 0.15 μg/mL)
[14] = rat lung, middle Conc (rubiadin 0.98, rubiadin 1-methyl ether 0.72 μg/mL)
[15] = rat plasma, high Conc (rubiadin 712.5, rubiadin 1-methyl ether 765, monotropein 28.1 μg/mL)
[16] = rat plasma, low Conc (rubiadin 3.6, rubiadin 1-methyl ether 3.9, monotropein 0.14 μg/mL)
[17] = rat plasma, middle Conc (rubiadin 50.6, rubiadin 1-methyl ether 54.6, monotropein 2 μg/mL)
[18] = rat small intestine, high Conc (rubiadin 4.63, rubiadin 1-methyl ether 3.49, monotropein 28.13 μg/mL)
[19] = rat small intestine, low Conc (rubiadin 0.21, rubiadin 1-methyl ether 0.15, monotropein 1.41 μg/mL)
[20] = rat small intestine, middle Conc (rubiadin 0.98, rubiadin 1-methyl ether 0.72, monotropein 6.2 μg/mL)

O=C(O)C1=CO[C@@H](O[C@@H]2O[C@H](CO)[C@@H](O)[C@H](O)[C@H]2O)[C@H]2[C@@H]1C=C[C@]2(O)CO [Monotropein, monotropein]
Cmax [1, 4]: 0.0233 ± 0.000764 µg/mL
Cmax [1, 5]: 0.0233 ± 0.000676 µg/mL
Shape of plasma concentration-time curve ([1]; oral MO and SMO extract 40 g/kg): obvious double-peak phenomenon
AUC (0-t) ([1]; oral MO extract 40 g/kg): 44.22 ± 0.932 μg/L ∗ h
AUC (0-∞) ([1]; oral MO extract 40 g/kg): 48.952 ± 1.559 μg/L ∗ h
CL/F ([1]; oral MO extract 40 g/kg): 0.818 ± 0.265 L/g/h
MRT (0-t) ([1]; oral MO extract 40 g/kg): 3.863 ± 0.184 H
T max ([1]; oral MO extract 40 g/kg): 1.0 H and 1.0 ± 0.00 H
V/F ([1]; oral MO extract 40 g/kg): 14.447 ± 2.143 L/g
t1/2z ([1]; oral MO extract 40 g/kg): 12.291 ± 2.09 H
AUC (0-t) ([1]; oral SMO extract 40 g/kg): 26.941 ± 1.423 μg/L ∗ h
AUC (0-∞) ([1]; oral SMO extract 40 g/kg): 27.045 ± 1.338 μg/L ∗ h
CL/F ([1]; oral SMO extract 40 g/kg): 1.482 ± 0.750 L/g/h
MRT (0-t) ([1]; oral SMO extract 40 g/kg): 1.686 ± 0.025 H
T max ([1]; oral SMO extract 40 g/kg): 0.5 H and 0.5 ± 0.00 H
V/F ([1]; oral SMO extract 40 g/kg): 12.239 ± 9.027 L/g
t1/2z ([1]; oral SMO extract 40 g/kg): 5.611 ± 3.958 H
Concentration in lung tissue [2]: could not be quantified

COc1c(C)c(O)cc2c1C(=O)c1ccccc1C2=O [Rubiadin 1-methyl ether, rubiadin 1-methyl ether]
Stability RE%, At 25°C for 12 h [3, 6]: −3.58%
Stability RE%, Autosampler at 4°C for 24 h [3, 6]: −0.36%
Stability RE%, Freeze–thaw cycles [3, 6]: −1.57%
Stability RE%, −20°C for 30 days [3, 6]: 0.54%
Stability RE%, At 25°C for 12 h [3, 7]: 0.35%
Stability RE%, Autosampler at 4°C for 24 h [3, 7]: −0.36%
Stability RE%, Freeze–thaw cycles [3, 7]: 0.15%
Stability RE%, −20°C for 30 days [3, 7]: −5.1%
Stability RE%, At 25°C for 12 h [3, 8]: 0.24%
Stability RE%, Autosampler at 4°C for 24 h [3, 8]: −0.68%
Stability RE%, Freeze–thaw cycles [3, 8]: −0.54%
Stability RE%, −20°C for 30 days [3, 8]: −2.49%
Stability RE%, At 25°C for 12 h [3, 9]: 0.42%
Stability RE%, Autosampler at 4°C for 24 h [3, 9]: −0.66%
Stability RE%, Freeze–thaw cycles [3, 9]: −0.68%
Stability RE%, −20°C for 30 days [3, 9]: −2.58%
Stability RE%, At 25°C for 12 h [3, 10]: −2.1%
Stability RE%, Autosampler at 4°C for 24 h [3, 10]: 0.54%
Stability RE%, Freeze–thaw cycles [3, 10]: −1.52%
Stability RE%, −20°C for 30 days [3, 10]: −0.58%
Stability RE%, At 25°C for 12 h [3, 11]: −3.42%
Stability RE%, Autosampler at 4°C for 24 h [3, 11]: −3.81%
Stability RE%, Freeze–thaw cycles [3, 11]: −5.42%
Stability RE%, −20°C for 30 days [3, 11]: −0.45%
Stability RE%, At 25°C for 12 h [3, 12]: −0.06%
Stability RE%, Autosampler at 4°C for 24 h [3, 12]: −2.42%
Stability RE%, Freeze–thaw cycles [3, 12]: −0.53%
Stability RE%, −20°C for 30 days [3, 12]: 0.05%
Stability RE%, At 25°C for 12 h [3, 13]: −0.57%
Stability RE%, Autosampler at 4°C for 24 h [3, 13]: −8.51%
Stability RE%, Freeze–thaw cycles [3, 13]: −2.57%
Stability RE%, −20°C for 30 days [3, 13]: −1.54%
Stability RE%, At 25°C for 12 h [3, 14]: −5.71%
Stability RE%, Autosampler at 4°C for 24 h [3, 14]: −0.65%
Stability RE%, Freeze–thaw cycles [3, 14]: −4.85%
Stability RE%, −20°C for 30 days [3, 14]: −0.55%
Stability RE%, At 25°C for 12 h [3, 15]: −5.1%
Stability RE%, Autosampler at 4°C for 24 h [3, 15]: −3.14%
Stability RE%, Freeze–thaw cycles [3, 15]: −3.71%
Stability RE%, −20°C for 30 days [3, 15]: −0.86%
Stability RE%, At 25°C for 12 h [3, 16]: −1.79%
Stability RE%, Autosampler at 4°C for 24 h [3, 16]: −1.49%
Stability RE%, Freeze–thaw cycles [3, 16]: −0.94%
Stability RE%, −20°C for 30 days [3, 16]: −3.26%
Stability RE%, At 25°C for 12 h [3, 17]: −4.21%
Stability RE%, Autosampler at 4°C for 24 h [3, 17]: −1.65%
Stability RE%, Freeze–thaw cycles [3, 17]: −1.35%
Stability RE%, −20°C for 30 days [3, 17]: −0.23%
Stability RE%, At 25°C for 12 h [3, 18]: 0.25%
Stability RE%, Autosampler at 4°C for 24 h [3, 18]: 0.48%
Stability RE%, Freeze–thaw cycles [3, 18]: −0.74%
Stability RE%, −20°C for 30 days [3, 18]: 1.35%
Stability RE%, At 25°C for 12 h [3, 19]: −0.69%
Stability RE%, Autosampler at 4°C for 24 h [3, 19]: −0.42%
Stability RE%, Freeze–thaw cycles [3, 19]: −6.57%
Stability RE%, −20°C for 30 days [3, 19]: −1.25%
Stability RE%, At 25°C for 12 h [3, 20]: −0.85%
Stability RE%, Autosampler at 4°C for 24 h [3, 20]: −0.62%
Stability RE%, Freeze–thaw cycles [3, 20]: −0.57%
Stability RE%, −20°C for 30 days [3, 20]: −0.25%
Cmax compared among the three components ([1]; especially in the SMO groups): the highest
Cmax [1, 4]: 0.432 ± 0.037 µg/mL
Cmax [1, 5]: 0.509 ± 0.0351 µg/mL
AUC (0-t) ([1]; oral MO extract 40 g/kg): 1059.49 ± 98.081 μg/L ∗ h
AUC (0-∞) ([1]; oral MO extract 40 g/kg): 1074.351 ± 102.019 μg/L ∗ h
CL/F ([1]; oral MO extract 40 g/kg): 0.037 ± 0.372 L/g/h
MRT (0-t) ([1]; oral MO extract 40 g/kg): 2.908 ± 0.151 H
T max ([1]; oral MO extract 40 g/kg): 0.5 ± 0.00 H
V/F ([1]; oral MO extract 40 g/kg): 0.287 ± 0.067 L/g
t1/2z ([1]; oral MO extract 40 g/kg): 5.379 ± 1.514 H
AUC (0-t) ([1]; oral SMO extract 40 g/kg): 1244.329 ± 82.805 μg/L ∗ h
AUC (0-∞) ([1]; oral SMO extract 40 g/kg): 1253.526 ± 84.691 μg/L ∗ h
CL/F ([1]; oral SMO extract 40 g/kg): 0.032 ± 0.210 L/g/h
MRT (0-t) ([1]; oral SMO extract 40 g/kg): 2.855 ± 0.15 H
T max ([1]; oral SMO extract 40 g/kg): 0.5 ± 0.00 H
V/F ([1]; oral SMO extract 40 g/kg): 0.196 ± 0.363 L/g
t1/2z ([1]; oral SMO extract 40 g/kg): 4.27 ± 0.865 H
Cmax and AUC0-t, SMO groups compared with the MO group ([1]; oral extract 40 g/kg): elevated remarkably

Cc1c(O)cc2c(c1O)C(=O)c1ccccc1C2=O [Rubiadin, rubiadin]
Tmax ([1]; male, Sprague-Dawley, oral extract 40 g/kg, MO or SMO group not specified): 1.5 h
Cmax [1, 4]: 0.0467 ± 0.0129 µg/mL
Cmax [1, 5]: 0.0502 ± 0.0089 µg/mL
AUC (0-t) ([1]; oral MO extract 40 g/kg): 152.252 ± 7.098 μg/L ∗ h
AUC (0-∞) ([1]; oral MO extract 40 g/kg): 153.816 ± 7.169 μg/L ∗ h
CL/F ([1]; oral MO extract 40 g/kg): 0.261 ± 0.012 L/g/h
MRT (0-t) ([1]; oral MO extract 40 g/kg): 6.062 ± 0.272 H
T max ([1]; oral MO extract 40 g/kg): 1.5 ± 0.00 H
V/F ([1]; oral MO extract 40 g/kg): 1.442 ± 0.090 L/g
t1/2z ([1]; oral MO extract 40 g/kg): 3.838 ± 0.196 H
AUC (0-t) ([1]; oral SMO extract 40 g/kg): 169.355 ± 8.836 μg/L ∗ h
AUC (0-∞) ([1]; oral SMO extract 40 g/kg): 176.441 ± 18.283 μg/L ∗ h
CL/F ([1]; oral SMO extract 40 g/kg): 0.228 ± 0.022 L/g/h
MRT (0-t) ([1]; oral SMO extract 40 g/kg): 5.89 ± 0.265 H
T max ([1]; oral SMO extract 40 g/kg): 1.5 ± 0.00 H
V/F ([1]; oral SMO extract 40 g/kg): 1.579 ± 0.842 L/g
t1/2z ([1]; oral SMO extract 40 g/kg): 5.006 ± 3.383 H
Cmax and AUC0-t, SMO groups compared with the MO group ([1]; oral extract 40 g/kg): elevated remarkably
